Measurements: patent US20090253644A1, “Radiosensitizer” (TOYO SUISAN KAISHA, LTD., priority 2004, published 2009)

Legend:
[1] = test system: angiogenesis (tube formation); assay: Assay by angiogenesis kit (KZ-1000), tube formation; format: cell-based
Protocol: The anti-angiogenic effect obtained by combined use of 20 μM of α-SQMG C18:0 administration and 4 Gy of ^60Co γ-ray irradiation was investigated using an angiogenesis kit (“angiogenesis kit KZ-1000” of Kurabo Industries Ltd.).
A drug named Suramin is the known substance as a drug suppressing angiogenesis, and it is known that its action is to inhibit a growth factor receptor of a vascular endothelial cell. In the present Example, Suramin was used as a positive control at 50 μM.
As described above, the “theoretical additive point of combined use” is calculated by multiplication, and the theoretical value is compared with an actually measured value.

[2] = test system: Bovine aortic endothelial cells (BAEC); assay: Colony assay on vascular endothelial cells with 60Co γ-ray irradiation; format: cell-based; set-up: key to actually measured SF value of combined use group / actually measured SF value of combined use: SF = colonies/seeded cells×(PE/100); PE = control colony formation rate; details: for SF (cell surviving fraction), administration alone / synergistic effect of combined use with radiation on suppression of proliferation of vascular endothelial cells: 10 μM; for SF (cell surviving fraction), administration alone: 24 hours, no irradiation; for synergistic effect of combined use with radiation on suppression of proliferation of vascular endothelial cells: 4 Gy and/or 6 Gy
Protocol: Bovine aortic endothelial cells (BAEC) were appropriately seeded on a petri dish, and adhesion of cells was confirmed after 2 to 3 hours. In a group of α-SQMG C18:0 administration alone and a combined use group, the cells were treated with 10 μM of α-SQMG C18:0. After 24 hours, a medium was exchanged in all test groups, and 4 Gy of ^60Co γ-ray was irradiated in a group of irradiation alone and a combined use group. After the cells were cultured in a CO2 incubator at 37° C. for 10 to 12 days, formed colonies were fixed with formalin, and stained with a crystal violet staining solution. On each plate, the number of colonies consisting of about 50 or more cells was counted, and cell surviving fraction (SF) was obtained according to the following equation.
SF (cell surviving fraction)=number of colonies/number of seeded cells×(PE/100)
Herein, PE (plating efficiency) represents a colony formation rate (%) on a plate of a control.
An experiment was performed three times, and an average of them was calculated.
The same experiment as that of Experimental Example 2-1 was performed except that a radiation dose 6 Gy was irradiated in place of 4 Gy used in Experimental Example 2-1. […]

[3] = 4 Gy 60Co γ-ray + α-SQMG C18:0 20 μM or Suramin 50 μM

Structure (SMILES) | tube formation rate, Actually measured value, combined use [1, 3] | tube formation rate, Theoretical value (theoretical additive point of combined use) [1, 3] | tube formation rate, use alone ([1]; α-SQMG C18:0 20 μM, Suramin 50 μM, no irradiation) | actually measured SF value of combined use group ([2]; 10 μM + 4 Gy 60Co γ-ray) | theoretical additive point of combined use (SF) ([2]; 10 μM + 4 Gy 60Co γ-ray) | SF (cell surviving fraction), administration alone [2] | actually measured SF value of combined use group ([2]; 10 μM + 6 Gy 60Co γ-ray) | theoretical additive point of combined use (SF) ([2]; 10 μM + 6 Gy 60Co γ-ray) | synergistic effect of combined use with radiation on suppression of proliferation of vascular endothelial cells [2]
Cc1ccc(C(=O)Nc2ccc(S(=O)(=O)O)c3cc(S(=O)(=O)O)cc(S(=O)(=O)O)c23)cc1NC(=O)c1cccc(NC(=O)Nc2cccc(C(=O)Nc3cc(C(=O)Nc4ccc(S(=O)(=O)O)c5cc(S(=O)(=O)O)cc(S(=O)(=O)O)c45)ccc3C)c2)c1 [Suramin, reference compound] | 0.232 | 0.219 | 0.3386 |  |  |  |  |  | 
CCCCCCCCCCCCCCCCCC(=O)OCC(CO[C@H]1O[C@H](CS(=O)(=O)[O-])[C@@H](O)[C@H](O)[C@H]1O)OC(=O)CCCCCCCCCCCCCCCCC.[Na+] (stereo partly drawn) [α-SQDG C18:0, 3-O-(6-deoxy-6-sulfo-α-D-glucopyranosyl)-1,2-di-O-stearoyl-glycerol sodium salt] |  |  |  | 0.0882 | 0.1765 | 0.9216 |  |  | 
CCCCCCCCCCCCCC(=O)OCC(O)CO[C@H]1O[C@H](CS(=O)(=O)[O-])[C@@H](O)[C@H](O)[C@H]1O.[Na+] (stereo partly drawn) [α-SQMG C14:0, 3-O-(6-deoxy-6-sulfo-α-D-glucopyranosyl)-1-O-myristoyl-glycerol sodium salt] |  |  |  |  |  | 1.0605 | 0.0109 | 0.0715 | considerably great synergistic effect
CCCCCCCCCCCCCCCC(=O)OCC(O)CO[C@H]1O[C@H](CS(=O)(=O)[O-])[C@@H](O)[C@H](O)[C@H]1O.[Na+] (stereo partly drawn) [α-SQMG C16:0, 3-O-(6-deoxy-6-sulfo-α-D-glucopyranosyl)-1-O-palmitoyl-glycerol sodium salt] |  |  |  |  |  | 0.9553 | 0.0233 | 0.0644 | considerably great synergistic effect
CCCCCCCC/C=C\CCCCCCCC(=O)OCC(O)CO[C@H]1O[C@H](CS(=O)(=O)[O-])[C@@H](O)[C@H](O)[C@H]1O.[Na+] (stereo partly drawn) [α-SQMG C18:1, 3-O-(6-deoxy-6-sulfo-α-D-glucopyranosyl)-1-O-oleoyl-glycerol sodium salt] |  |  |  | 0.0843 | 0.1990 | 1.0392 |  |  | 
CCCCCCCCCCCCCCCCCC(=O)OCC(O)CO[C@H]1O[C@H](CS(=O)(=O)[O-])[C@@H](O)[C@H](O)[C@@H]1O.[Na+] (stereo partly drawn) [α-SRMG C18:0, 3-O-(6-deoxy-6-sulfo-α-D-mannopyranosyl)-1-O-stearoyl-glycerol sodium salt] |  |  |  | 0.0784 | 0.1677 | 0.8758 |  |  | 
CCCCCCCCCCCCCCCCCC(=O)OCC(CO[C@@H]1O[C@H](CS(=O)(=O)[O-])[C@@H](O)[C@H](O)[C@H]1O)OC(=O)CCCCCCCCCCCCCCCCC.[Na+] (stereo partly drawn) [β-SQDG C18:0, 3-O-(6-deoxy-6-sulfo-β-D-glucopyranosyl)-1,2-di-O-stearoyl-glycerol sodium salt] |  |  |  | 0.0908 | 0.1377 | 0.7190 |  |  | 
CCCCCCCCCCCCCCCCCC(=O)OCC(O)CO[C@@H]1O[C@H](CS(=O)(=O)[O-])[C@@H](O)[C@H](O)[C@H]1O.[Na+] (stereo partly drawn) [β-SQMG C18:0, 3-O-(6-deoxy-6-sulfo-β-D-glucopyranosyl)-1-O-stearoyl-glycerol sodium salt] |  |  |  | 0.0922 | 0.1640 | 0.8562 |  |  | 
